System: B16.BL6 melanoma cells
Assay: Cell concentration and viability after conjugation, trypan blue (Example 11)
Format: cell-based
Method: Two flasks (300 cm^2) (TPP, Trasadingen Switzerland) of confluent B16.BL6 melanoma cells grown in DMEM containing 10% fetal calf serum (without P/S) at 37.5° C. in 5% CO2 were used for this experiment. Growth medium was removed from the cells and 25 mL of PBS (without Mg^2+ and Ca^2+) (Gibco Invitrogen, Taastrup, Denmark) was added to the cells and immediately removed again. Another 10 mL of PBS was added and removed, before cells were harvested with Cell Dissociation Solution C5914 (Sigma-aldrich, Saint Louis, Mo.) (3 mL per flask) and transferred to 10 mL tubes (TPP, Trasadingen Switzerland). The cells were centrifuged for 5 minutes at 300 G at 20° C. and the supernatant was discarded. Subsequently, cells were washed in PBS (without Mg^2+ and Ca^2+), centrifuged as above and resuspended in PBS (without Mg^2+ and Ca^2+). The concentration of the cell suspension was determined.
Five hundred mg of alpha-Gal trisaccharide-carbamate (9) was dissolved in PBS (without Mg^2+ and Ca^2+) (Gibco Invitrogen, Taastrup, Denmark) and passed through a sterile filter (Sartorius Minisart®, 0.20 my) (Sartorius, Goettingen, Germany). Eight different concentrations of conjugate were prepared. Two mL of each conjugate dilution was added to a flask with 2 mL of PBS (without Mg^2+ and Ca^2+) and 600 μl of cell suspension containing 10^6 B16.BL6 cells. The final volume of the flasks was 4.6 mL. The flasks were numbered 1 to 10. Flasks 1 and 10 contained no conjugate and served as controls. The cells were incubated with the conjugate for 3 hours and 25 minutes at 37° C. and 5% CO2.
After conjugation, cells from conjugation reaction 1 (non-conjugated cells), 2, 4, 6 and 8 were harvested with 10 mL of Cell Dissociation Solution C5914 (Sigma-Aldrich, Saint Louis, Mo.) and transferred to 10 mL tubes (TPP, Trasadingen Switzerland). Cells were centrifuged for 5 minutes at 300 G at 20° C. and resuspended in PBS (without Mg^2+ and Ca^2+). Finally, cells were centrifuged as before and resuspended in 100 μl TBS with 1% BSA. Cell concentration and viability was determined by microscopic evaluation of trypan blue stained cell samples. Cells from conjugation reaction 3, 5, 7, 9 and 10 (non-conjugated cells), were harvested the following day as described above. The cells were centrifuged once for 5 minutes at 300 G at 20° C. and resuspended in 100 μl TBS with 1% BSA. Cell concentration and viability was determined by microscopic evaluation of trypan blue stained cell samples.

[1] = reaction 2, 200 mg conjugate, 10^6 cells, PBS, 3 h 25 min 37° C.
[2] = reaction 3, 100 mg conjugate, measured 1 day after the conjugation procedure
[3] = reaction 5, 20 mg conjugate, measured 1 day after the conjugation procedure
[4] = reaction 7, 5 mg conjugate, measured 1 day after the conjugation procedure
[5] = reaction 9, 1 mg conjugate, measured 1 day after the conjugation procedure

O=C1N[C@@H]2O[C@H](CO)[C@@H](O[C@@H]3O[C@H](CO)[C@H](O)[C@H](O[C@H]4O[C@H](CO)[C@H](O)[C@H](O)[C@H]4O)[C@H]3O)[C@H](O)[C@H]2O1 [Compound 9, alpha-Gal trisaccharide-carbamate]
Cell concentration [1]: 3.50 × 10^6 cells/mL | Cell viability [1]: 58.9% | Cell concentration [2]: 3.08 × 10^6 cells/mL | Cell viability [2]: 65.6% | Cell concentration (reaction 4, 50 mg conjugate): 3.16 × 10^6 cells/mL | Cell viability (reaction 4, 50 mg conjugate): 1.9% | Cell concentration [3]: 1.90 × 10^6 cells/mL | Cell viability [3]: 0.0% | Cell concentration (reaction 6, 10 mg conjugate): 2.26 × 10^6 cells/mL | Cell viability (reaction 6, 10 mg conjugate): 16.8% | Cell concentration [4]: 2.02 × 10^6 cells/mL | Cell viability [4]: 34.7% | Cell concentration (reaction 8, 2 mg conjugate): 2.22 × 10^6 cells/mL | Cell viability (reaction 8, 2 mg conjugate): 8.1% | Cell concentration [5]: 2.12 × 10^6 cells/mL | Cell viability [5]: 16.0%

From patent US8785594B2, “Glycoproteins and glycosylated cells and a method for the preparation of the same” (Glycom A/S, priority 2007, dated 2014)
